{
  "source": "paper PMC12281424",
  "about": "“A Rac-specific competitive inhibitor of guanine nucleotide binding reduces metastasis in triple-negative breast cancer” (Cell Reports Medicine, 2025)",
  "key": {"RHOA": {"molecular_target": "RHOA (Homo sapiens, UniProt P61586)", "sequence (P61586 whole entry)": "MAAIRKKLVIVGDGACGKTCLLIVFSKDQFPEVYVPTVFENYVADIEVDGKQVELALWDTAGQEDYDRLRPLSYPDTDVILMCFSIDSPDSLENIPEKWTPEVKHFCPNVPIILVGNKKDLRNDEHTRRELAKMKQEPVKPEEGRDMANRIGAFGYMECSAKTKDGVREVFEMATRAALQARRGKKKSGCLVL", "assay": "GEF-stimulated nucleotide exchange", "format": "biochemical", "parameters": "Full-length RAC2, RHOG, RHOA and CDC42 were purified as previously described; made in house; p115RhoGEF DH-PH in insect cells (Sf21)", "settings": "10^-5 M", "from_the_text": "Figure 4 A41 selectively impairs RAC protein activation (A) Representative surface plasmon resonance (SPR) sensograms of binding of immobilized RHOA or CDC42 with indicated increasing concentrations of A41 (N > 3). (B) Effect of A41 on GEF-stimulated RAC2, RHOG, RHOA, and CDC42 nucleotide exchange. […] Kobs is expressed as mean ± SEM. ∗p < 0.001 vs. control. (C) Effect of A41 on RAC1 G30S activation. […] The GEF TRIO was used to induce nucleotide exchange (N = 3). Data are expressed as mean ± SEM. (D) Immunoblot analysis and associated quantification of RAC-GTP level and total RAC expression in NIH-3T3 fibroblasts expressing RAC wild-type (RAC1 WT) or RAC1 oncomutants (RAC1 P29S and RAC1b) in the absence (Ctrl) and presence of A41 (10 μM). RAC activation was measured as the ratio of RAC-GTP to total RAC and expressed relative to Ctrl condition. Data are presented as mean ± SEM. ∗∗∗p < 0.001 vs. controls.\nFull-length RAC1 carrying a 6xHis tag in C-terminus was purified as previously described.[64] […] Specific exchange activity toward RHOA determined by fluorescence kinetics is 0.04 s^−1M^−1.\nNucleotide exchange kinetics were measured by recording the increase in fluorescence following the association of mant-GTP on GDP-bound RHO protein or the decay in fluorescence following the dissociation of mant-GDP pre-loaded onto the RHO protein (λEx = 360 nm, λEm = 440 nm) as previously described.[39] […]"}, "AMPKα2(h)": {"molecular_target": "AMPKα2(h) (Homo sapiens, UniProt P54646)", "sequence (P54646 whole entry)": "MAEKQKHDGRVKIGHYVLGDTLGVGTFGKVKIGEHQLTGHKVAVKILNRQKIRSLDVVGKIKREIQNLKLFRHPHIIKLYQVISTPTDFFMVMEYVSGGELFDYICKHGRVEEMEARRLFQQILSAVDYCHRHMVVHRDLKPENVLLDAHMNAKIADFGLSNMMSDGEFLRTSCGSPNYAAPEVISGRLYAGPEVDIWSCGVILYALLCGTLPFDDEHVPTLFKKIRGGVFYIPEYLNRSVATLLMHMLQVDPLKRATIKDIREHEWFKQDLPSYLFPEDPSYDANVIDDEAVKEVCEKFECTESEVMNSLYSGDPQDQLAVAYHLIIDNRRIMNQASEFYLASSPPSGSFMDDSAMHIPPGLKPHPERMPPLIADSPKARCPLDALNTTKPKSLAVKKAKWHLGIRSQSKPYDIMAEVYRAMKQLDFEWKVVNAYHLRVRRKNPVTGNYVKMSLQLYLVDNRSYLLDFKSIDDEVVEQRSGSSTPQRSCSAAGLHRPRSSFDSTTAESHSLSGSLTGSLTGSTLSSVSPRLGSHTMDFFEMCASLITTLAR", "sequence (Q9Y478 whole entry partner)": "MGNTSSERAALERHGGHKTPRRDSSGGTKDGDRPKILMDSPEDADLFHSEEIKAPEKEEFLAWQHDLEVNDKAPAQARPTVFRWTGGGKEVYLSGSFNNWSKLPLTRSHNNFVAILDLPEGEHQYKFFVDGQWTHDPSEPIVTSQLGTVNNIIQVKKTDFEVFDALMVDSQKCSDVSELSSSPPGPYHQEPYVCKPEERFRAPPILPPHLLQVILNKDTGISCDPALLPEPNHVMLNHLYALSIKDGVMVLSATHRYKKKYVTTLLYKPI", "sequence (P54619 whole entry partner)": "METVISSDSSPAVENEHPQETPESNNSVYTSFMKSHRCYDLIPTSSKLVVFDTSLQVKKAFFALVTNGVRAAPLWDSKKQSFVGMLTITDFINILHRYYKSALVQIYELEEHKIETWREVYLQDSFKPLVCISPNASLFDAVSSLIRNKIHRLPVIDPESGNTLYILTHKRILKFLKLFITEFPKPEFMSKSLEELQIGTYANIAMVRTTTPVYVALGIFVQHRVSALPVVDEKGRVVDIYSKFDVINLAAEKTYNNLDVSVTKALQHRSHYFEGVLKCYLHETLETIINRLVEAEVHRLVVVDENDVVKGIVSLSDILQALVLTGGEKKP", "assay": "Kinase Profiler", "format": "biochemical", "procedure": "(§1) Blood cell counts, kinase profiler, safety screen, bacterial cytotoxicity, Ames, micronucleus assays were performed by the company Eurofins (France). The kinase profiler was performed by the company Eurofins (Discovery, Panlab and Cerep)."}, "EphB1(h)": {"molecular_target": "EphB1(h) (Homo sapiens, UniProt P54762)", "sequence (P54762 18-984)": "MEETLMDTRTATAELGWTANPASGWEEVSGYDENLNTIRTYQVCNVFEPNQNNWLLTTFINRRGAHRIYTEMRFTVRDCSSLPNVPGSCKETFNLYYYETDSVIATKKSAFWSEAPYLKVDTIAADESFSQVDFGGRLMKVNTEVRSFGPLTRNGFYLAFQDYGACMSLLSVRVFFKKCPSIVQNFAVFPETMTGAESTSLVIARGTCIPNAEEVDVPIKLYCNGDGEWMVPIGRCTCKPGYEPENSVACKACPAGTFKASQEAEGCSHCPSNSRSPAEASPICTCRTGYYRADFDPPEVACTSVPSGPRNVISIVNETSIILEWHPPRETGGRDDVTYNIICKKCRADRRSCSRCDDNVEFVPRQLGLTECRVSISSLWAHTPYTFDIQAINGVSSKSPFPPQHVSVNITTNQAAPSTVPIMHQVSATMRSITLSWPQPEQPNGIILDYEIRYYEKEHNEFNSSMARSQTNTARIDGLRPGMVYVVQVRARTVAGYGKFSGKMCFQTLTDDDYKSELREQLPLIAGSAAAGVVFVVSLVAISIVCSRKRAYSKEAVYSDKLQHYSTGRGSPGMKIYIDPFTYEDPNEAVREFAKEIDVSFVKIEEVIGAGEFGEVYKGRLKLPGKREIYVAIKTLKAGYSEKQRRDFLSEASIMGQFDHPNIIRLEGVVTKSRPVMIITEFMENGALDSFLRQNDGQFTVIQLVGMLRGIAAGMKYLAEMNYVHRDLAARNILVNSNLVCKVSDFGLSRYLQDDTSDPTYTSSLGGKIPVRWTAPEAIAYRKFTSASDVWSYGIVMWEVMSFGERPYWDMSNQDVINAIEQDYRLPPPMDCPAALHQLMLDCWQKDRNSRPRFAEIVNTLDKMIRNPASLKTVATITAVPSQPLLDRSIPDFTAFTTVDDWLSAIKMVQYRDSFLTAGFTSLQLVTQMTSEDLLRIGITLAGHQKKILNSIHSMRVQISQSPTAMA", "assay": "Kinase Profiler", "format": "biochemical", "procedure": "as §1"}, "LRRK2(h)": {"molecular_target": "LRRK2(h) (Homo sapiens, UniProt Q5S007)", "sequence (Q5S007 whole entry)": "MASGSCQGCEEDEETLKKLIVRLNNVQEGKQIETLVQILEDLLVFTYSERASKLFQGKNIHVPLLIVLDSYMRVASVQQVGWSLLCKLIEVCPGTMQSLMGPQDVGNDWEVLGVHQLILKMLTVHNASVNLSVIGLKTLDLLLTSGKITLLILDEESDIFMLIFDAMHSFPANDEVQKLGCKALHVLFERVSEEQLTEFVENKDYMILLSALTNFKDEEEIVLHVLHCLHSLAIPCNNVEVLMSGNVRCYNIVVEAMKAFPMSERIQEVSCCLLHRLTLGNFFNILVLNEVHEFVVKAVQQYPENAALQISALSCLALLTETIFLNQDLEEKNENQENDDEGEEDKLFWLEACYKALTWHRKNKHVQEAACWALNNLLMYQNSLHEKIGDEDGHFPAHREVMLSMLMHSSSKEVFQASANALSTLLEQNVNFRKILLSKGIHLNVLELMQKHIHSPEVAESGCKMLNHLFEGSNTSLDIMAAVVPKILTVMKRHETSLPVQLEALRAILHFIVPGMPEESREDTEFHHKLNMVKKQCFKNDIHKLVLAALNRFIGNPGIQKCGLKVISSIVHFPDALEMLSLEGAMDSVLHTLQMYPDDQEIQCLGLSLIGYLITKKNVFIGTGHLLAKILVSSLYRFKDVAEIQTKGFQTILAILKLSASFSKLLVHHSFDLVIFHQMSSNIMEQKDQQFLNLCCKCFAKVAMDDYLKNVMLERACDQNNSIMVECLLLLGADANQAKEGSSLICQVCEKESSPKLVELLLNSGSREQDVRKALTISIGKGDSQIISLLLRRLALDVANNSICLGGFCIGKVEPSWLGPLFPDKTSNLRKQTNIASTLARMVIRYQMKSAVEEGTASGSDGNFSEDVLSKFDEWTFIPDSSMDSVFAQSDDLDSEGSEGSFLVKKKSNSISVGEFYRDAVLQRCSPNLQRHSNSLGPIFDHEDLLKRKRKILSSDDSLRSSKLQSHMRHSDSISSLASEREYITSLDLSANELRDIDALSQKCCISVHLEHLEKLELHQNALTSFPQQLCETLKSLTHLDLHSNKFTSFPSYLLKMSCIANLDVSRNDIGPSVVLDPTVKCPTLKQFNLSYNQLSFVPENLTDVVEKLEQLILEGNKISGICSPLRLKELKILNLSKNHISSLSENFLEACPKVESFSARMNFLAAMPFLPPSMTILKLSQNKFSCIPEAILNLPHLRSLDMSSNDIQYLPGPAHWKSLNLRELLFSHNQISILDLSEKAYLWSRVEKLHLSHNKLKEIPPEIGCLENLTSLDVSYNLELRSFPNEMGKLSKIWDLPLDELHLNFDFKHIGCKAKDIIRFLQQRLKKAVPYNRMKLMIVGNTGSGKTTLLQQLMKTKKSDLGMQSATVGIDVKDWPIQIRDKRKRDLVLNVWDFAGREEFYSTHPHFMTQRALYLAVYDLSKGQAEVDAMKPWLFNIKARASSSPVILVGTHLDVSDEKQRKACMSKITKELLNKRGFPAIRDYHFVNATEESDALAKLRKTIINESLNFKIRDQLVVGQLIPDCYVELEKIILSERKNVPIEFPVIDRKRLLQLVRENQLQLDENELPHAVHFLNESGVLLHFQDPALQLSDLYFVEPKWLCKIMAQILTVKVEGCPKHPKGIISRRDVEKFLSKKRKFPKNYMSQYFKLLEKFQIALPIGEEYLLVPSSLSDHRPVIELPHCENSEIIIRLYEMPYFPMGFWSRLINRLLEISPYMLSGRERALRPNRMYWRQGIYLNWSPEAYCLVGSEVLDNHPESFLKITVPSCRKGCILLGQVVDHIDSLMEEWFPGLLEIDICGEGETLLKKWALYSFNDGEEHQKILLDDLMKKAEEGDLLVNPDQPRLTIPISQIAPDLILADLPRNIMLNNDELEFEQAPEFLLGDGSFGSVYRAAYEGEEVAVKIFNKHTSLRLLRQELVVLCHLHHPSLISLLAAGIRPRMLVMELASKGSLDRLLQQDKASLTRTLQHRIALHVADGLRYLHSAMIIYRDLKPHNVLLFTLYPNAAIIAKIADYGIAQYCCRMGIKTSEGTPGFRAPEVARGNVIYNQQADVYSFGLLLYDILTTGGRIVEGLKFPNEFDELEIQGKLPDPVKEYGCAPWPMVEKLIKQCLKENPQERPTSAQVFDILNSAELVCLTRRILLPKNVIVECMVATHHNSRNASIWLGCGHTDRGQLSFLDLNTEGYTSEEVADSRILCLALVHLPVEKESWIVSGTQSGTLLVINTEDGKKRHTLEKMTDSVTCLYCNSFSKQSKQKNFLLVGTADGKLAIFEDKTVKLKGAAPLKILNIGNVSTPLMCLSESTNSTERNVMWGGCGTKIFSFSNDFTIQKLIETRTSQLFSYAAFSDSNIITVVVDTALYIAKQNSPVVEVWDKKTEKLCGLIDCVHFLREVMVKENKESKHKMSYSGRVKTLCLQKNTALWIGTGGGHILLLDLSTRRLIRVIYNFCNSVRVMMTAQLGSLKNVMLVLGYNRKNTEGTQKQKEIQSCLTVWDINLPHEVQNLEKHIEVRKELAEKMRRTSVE", "assay": "Kinase Profiler", "format": "biochemical", "procedure": "The kinase profiler was performed by the company Eurofins (Discovery, Panlab and Cerep)."}, "PI3K (p110b/p85a)(m)": {"molecular_target": "PI3K (p110b/p85a)(m) (Mus musculus, UniProt Q8BTI9)", "assay": "Kinase Profiler", "format": "biochemical", "procedure": "as §1"}, "Chemokine CCR1": {"molecular_target": "Chemokine CCR1 (Homo sapiens, UniProt P32246)", "assay": "Safety screen", "format": "binding", "procedure": "Blood cell counts, kinase profiler, safety screen, bacterial cytotoxicity, Ames, micronucleus assays were performed by the company Eurofins (France)."}, "[1]": {"system": "RAC1-GTP levels in MDA-MB-468 Luc cells", "assay": "RAC-GTP immunofluorescence", "format": "cell-based", "protocol": "Luciferase (Luc, green) was used to detect the cells. […] (C) Quantification of colony number of indicated cancer cell lines in the presence of A41 (10 μM) expressed as the percentage of control in the absence of A41. […] (D) Immunoblot analysis and corresponding quantification of AKT and P44/42 expression and phosphorylation (pAKT, p44/42) in MDA-MB-468 Luc cells in the absence (−) and presence of NSC23766 or A41 (1 h at 10^−5 M). […] (E) 3D invasion assay of MDA-MB-468 Luc and cancer-associated fibroblasts (CAFs) and corresponding quantification (scale bars: 200 μm).\nAfter indicated treatments, cells were fixed with 4% paraformaldehyde and permeabilized in PBS 0.5% Triton X-100. To assess RAC1 activity, cells were then incubated with RAC-GTP antibody (26903, NewEast Biosciences, King of Prussia, Pa) (dilution 1/500) overnight at room temperature, followed by secondary Alexa 568-labeled anti-mouse antibody (dilution 1/1000). Cancer cells were detected with firefly luciferase antibody (ab21176, Abcam) (dilution 1/500) overnight at room temperature, followed by secondary Alexa 488-labeled anti-rabbit antibody (dilution 1/1000). To assess cytoskeleton organization, cells were incubated with Alexa Fluor 488 phalloidin (A12379, Invitrogen) to visualize F-actin. After staining, cells were mounted in Prolong gold antifade reagent with DAPI and images were captured by a fluorescence microscope."}},
  "note": "pIC50: −log10 of the molar value.",
  "data": [
    {"smiles": "COc1ccc(OC)c(NS(=O)(=O)c2ccc(NC(=O)CCSc3ccc(C)cc3)cc2)c1", "note": "[Compound A41]", "values": [
      {"measurement": "activation of RHOA induced by p115RhoGEF DH-PH", "setting": "RHOA", "value": "did not change the activation"},
      {"measurement": "Activity(%)", "setting": "AMPKα2(h)", "value": 111, "unit": "%"},
      {"measurement": "Activity(%)", "setting": "EphB1(h)", "value": 111, "unit": "%"},
      {"measurement": "Activity(%)", "setting": "LRRK2(h)", "value": 111, "unit": "%"},
      {"measurement": "Activity(%)", "setting": "PI3K (p110b/p85a)(m)", "value": 101, "unit": "%"},
      {"measurement": "% inh.", "setting": "Chemokine CCR1", "value": 2, "unit": "%"},
      {"measurement": "decrease of active RAC1-GTP levels", "setting": "[1]; 10^-5 M, 1 h", "value": "more than 50%"},
      {"measurement": "pIC50", "setting": "[1]; dose-response curve, Figure 5A", "value": 6.09}
    ]}
  ]
}
